{
  "source": "patent US11427601B1",
  "about": "“Inhibitors of KEAP1-Nrf2 protein-protein interaction” (Janssen Pharmaceutica NV, priority 2018, dated 2022)",
  "data": [
    {"system": "NrF2 activation of the ARE (Glo-Response ARE-luc2P HEK293 cell line)", "experiment": "ARE luciferase reporter assay in HEK293 cells", "format": "cell-based", "conditions": "24 hours, average of results obtained", "units": {"EC50": "nM"}, "method": "The ARE assay utilizes a luciferase reporter cell line where the signal is proportional to NrF2 activation of the ARE. The cell line is commercially available from Promega and was prepared by stably transfecting HEK293 cells with a vector (pGL4.11) which contains the ARE response element upstream of a minimal promoter. The promoter drives expression of luc2 firefly luciferase gene. Upon disruption of KEAP1-Nrf2 binding by compound, Nrf2 translocates into the nucleus where it binds to the ARE and activates transcription of luciferase.\nThe materials used in this ARE assay are as follows: Glo-Response ARE-luc2P HEK293 cell line and One-Glo Luciferase Assay System were purchased from Promega (Madison, Wis.). Dulbecco's Modified Eagle medium ((DMEM), low glucose, GlutaMAX, pyruvate), fetal bovine serum (certified, heat inactivated), hygromycin B, Dulbecco's phosphate-buffered saline were purchased from Life Technologies (Grand Island, N.Y.). Penicillin, streptomycin solution (100×) and 0.05% trypsin-EDTA were purchased from Corning (Manassas, Va.). DMSO was purchased from EMD Millipore.\nThe ARE assay protocol is as follows: cells were maintained in growth medium (DMEM +10% FBS, 200 μg/mL hygromycin B, p-s) between 20-90% confluency by splitting twice per week. One day before the assay, cells were trypsinized, counted to determine viable cell count, and re-suspended in assay medium (DMEM +10% FBS, p-s) at 250,000 cells/mL. […] 100% DMSO was used as the low control. A 11-point dose series of the control compound was included on every plate. Compounds were spotted to an intermediate plate (Greiner # 781280 V-bottom 384 well plate) using the Echo acoustic dispenser (Labscyte San Jose, Calif.). Spot size was 240 nL.\nOn the day of the assay, 60 mL per well of assay medium was added to the pre-spotted plate to make 2X compound stocks using the Combi (Thermo Waltham, Mass.). Compound and medium were mixed on the Janus and 20 mL of 2× compound stock was added to the cell plate which already contained 20 mL of assay medium from cell plating. […] The plates were returned to the tissue culture incubator for 24 hours.\nThe next day, luciferase activity was measured according to the manufacturer's protocol for One-Glo luciferase reagent. The plates were removed from the incubator and allowed to equilibrate to room temperature for 30 min. Forty microliters of One-Glo reagent (equilibrated to room temperature) was added per well using the Combi. The plates were mixed on an orbital shaker for 3 min. Luminescence was read on the BMG Pherastar multiplate reader (Cary, N.C.) using the luminescence protocol (1 sec interval).\nThe dose-response data were analyzed in Genedata Screener using 4PL nonlinear regression model. Raw luminescence counts as well as normalized values were used for data analysis.", "values": [
      {"compound": "Cc1ccc([C@H](CC(=O)O)c2ccc3c(nnn3CC3CC3)c2C(F)F)cc1CN1C[C@@H]2CCCCN2c2ncccc2S1(=O)=O", "note": "(relative stereo) [Example 172, (*S)-3-(1-(Cyclopropylmethyl)-4-(difluoromethyl)-1H-benzo[d][1,2,3]triazol-5-yl)-3-(3-(((*S)-5,5-dioxido-7,7a,8,9,10,11-hexahydro-6H-dipyrido[2,1-d:2′,3′-f][1,2,5]thiadiazepin-6-yl)methyl)-4-methylphenyl)propanoic acid]", "EC50": 19},
      {"compound": "CCc1nnc2c(C)c([C@H](CC(=O)O)c3ccc(C)c(CN4C[C@H]5CCCN5c5ncccc5S4(=O)=O)c3)ccn12", "note": "(relative stereo) [Example 283, (*R)-3-(3-(((R)-5,5-dioxido-7a,8,9,10-tetrahydropyrido[2,3-f]pyrrolo[2,1-d][1,2,5]thiadiazepin-6(7H)-yl)methyl)-4-methylphenyl)-3-(3-ethyl-8-methyl-[1,2,4]triazolo[4,3-a]pyridin-7-yl)propanoic acid]", "EC50": 4170},
      {"compound": "Cc1cnc2c(c1)S(=O)(=O)N(Cc1cc([C@H](CC(=O)O)c3ccn4c(C(F)(F)F)nnc4c3C)ccc1C)C[C@@H]1CCCCN21", "note": "(relative stereo) [Example 307, (*S)-3-(4-methyl-3-(((*S)-3-methyl-5,5-dioxido-7,7a,8,9,10,11-hexahydro-6H-dipyrido[2,1-d:2′,3′-f][1,2,5]thiadiazepin-6-yl)methyl)phenyl)-3-(8-methyl-3-(trifluoromethyl)-[1,2,4]triazolo[4,3-a]pyridin-7-yl)propanoic acid]", "EC50": 2},
      {"compound": "Cc1ccc([C@H](c2ccc3c(nnn3C3CC3)c2C)C(C)(C)C(=O)O)cc1CN1CC2(CC2)Oc2nc(N[C@@H](C)CN3CCCCC3)c(C)cc2S1(=O)=O", "note": "(relative stereo) [Example 660, (*R)-3-(1-Cyclopropyl-4-methyl-1H-benzo[d][1,2,3]triazol-5-yl)-2,2-dimethyl-3-(4-methyl-3-((8′-methyl-1′,1′-dioxido-7′-(((S)-1-(piperidin-1-yl)propan-2-yl)amino)spiro[cyclopropane-1,4′-pyrido[2,3-b][1,4,5]oxathiazepin]-2′(3′H)-yl)methyl)phenyl)propanoic acid]", "EC50": 235},
      {"compound": "Cc1ccc([C@H](CC(=O)O)c2ccn3c(C(F)(F)F)nnc3c2C)cc1CN1CC2(COC2)Oc2ccc(F)cc2S1(=O)=O", "note": "(single isomer, unassigned) [Example 99]", "EC50": 5.8},
      {"compound": "Cc1ccc([C@@H](c2ccn3c(C(F)(F)F)nnc3c2C)C(C)(C)C(=O)O)cc1CN1CC2(CC2)Oc2nc(OCCN3CCCC3)ccc2S1(=O)=O", "note": "(single isomer, unassigned) [Example 598, (*S)-3-(3-((1′,1′-dioxido-7′-(2-(pyrrolidine-1-yl)ethoxy)spiro[cyclopropane-1,4′-pyrido[2,3-b][1,4,5]oxathiazepin]-2′(3′H)-yl)methyl)-4-methylphenyl)-2,2-dimethyl-3-(8-methyl-3-(trifluoromethyl)-[1,2,4]triazolo[4,3-a]pyridine-7-yl)propanoic acid]", "EC50": 8.85},
      {"compound": "(*S)-3-(3-((7′-(3-((2-(2-aminoethoxy)ethyl)amino)-3-oxopropyl)-1′,1′-dioxido-2,3,5,6-tetrahydrospiro[pyran-4,4′-pyrido[2,3-b][1,4,5]oxathiazepin]-2′(3′H)-yl)methyl)-4-methylphenyl)-2,2-dimethyl-3-(8-methyl-3-(trifluoromethyl)-[1,2,4]triazolo[4,3-a]pyridin-7-yl)propanoic acid [Example 345]", "EC50": "> 20"}
    ]},
    {"system": "NrF2 activation of the ARE (Glo-Response ARE-luc2P HEK293 cell line)", "experiment": "ARE luciferase reporter assay in HEK293 cells", "format": "cell-based", "conditions": "Homo sapiens, HEK293, 24 h, average of results obtained", "units": {"EC50": "nM"}, "values": [
      {"compound": "Cc1ccc([C@H](c2cc(C)n3c(C(F)(F)F)nnc3c2C)C(C)C(=O)O)cc1CN1C[C@@H]2CCCCN2c2ncccc2S1(=O)=O", "note": "(relative stereo) [Example 133, (3*R)-3-(5,8-Dimethyl-3)-(trifluoromethyl)-[1,2,4-triazolo[4,3-a]pyridine-7-yl)-3-(3-((*S)-5,5-dioxido-7,7a,8,9,10,11-hexahydro-6H-dipyrido[2,1-d:2′,3′-f][1,2,5]thiadiazepin-6-yl)methyl)-4-methylphenyl)-2-methylpropanoic acid]", "EC50": 2},
      {"compound": "Cc1ccc([C@H](CC(=O)O)c2cc(OC(F)F)c3c(c2)nnn3C)cc1CN1C[C@H]2CCCN2c2ncccc2S1(=O)=O", "note": "(single isomer, unassigned) [Example 247, (*S)-3-(7-(Difluoromethoxy)-1-methyl-1H-benzo[d][1,2,3]triazol-5-yl)-3-(3-(((R)-5,5-dioxido-7a,8,9,10-tetrahydropyrido[2,3-f]pyrrolo[2,1-d][1,2,5]thiadiazepin-6(7H)-yl)methyl)-4-methylphenyl)propanoic acid]", "EC50": 225},
      {"compound": "Cc1cnc2c(c1)S(=O)(=O)N(Cc1cc([C@H](c3ccn4c(C(F)(F)F)nnc4c3C)C(C)(C)C(=O)O)cnc1C)CC1(CC1)O2", "note": "(single isomer, unassigned) [Example 573, (*S)-2,2-Dimethyl-3-(8-methyl-3-(trifluoromethyl)-[1,2,4]triazolo[4,3-a]pyridin-7-yl)-3-(6-methyl-5-((8′-methyl-1′,1′-dioxidospiro[cyclopropane-1,4′-pyrido[2,3-b][1,4,5]oxathiazepin]-2′(3′H)-yl)methyl)pyridin-3-yl)propanoic acid]", "EC50": 321},
      {"compound": "Cc1cnc2c(c1)S(=O)(=O)N(Cc1cc(C(c3ccn4c(C(F)(F)F)nnc4c3C)C(C)(C)C(=O)O)cnc1C)CC1(CC1)O2", "note": "(single isomer, unassigned) [Example 574, (*R)-2,2-Dimethyl-3-(8-methyl-3-(trifluoromethyl)-[1,2,4]triazolo[4,3-a]pyridin-7-yl)-3-(6-methyl-5-((8′-methyl-1′,1′-dioxidospiro[cyclopropane-1,4′-pyrido[2,3-b][1,4,5]oxathiazepin]-2′(3′H)-yl)methyl)pyridin-3-yl)propanoic acid]", "EC50": 14600},
      {"compound": "Cc1ccc(C(c2ccn3c(C(F)(F)F)nnc3c2C)C(C)C(=O)O)cc1CN1C[C@@H]2CCCCN2c2ncccc2S1(=O)=O", "note": "(stereo in doubt) [Example 129, 3-(3-(((*S)-5,5-Dioxido-7,7a,8,9,10,11-hexahydro-6H-dipyrido[2,1-d:2′,3′-f][1,2,5]thiadiazepin-6-yl)methyl)-4-methylphenyl)-2-methyl-3-(8-methyl-3-(trifluoromethyl)-[1,2,4]triazolo[4,3-a]pyridine-7-yl)propanoic acid]", "EC50": 6.8}
    ]},
    {"biological_target": "Kelch domain of human KEAP 1 (321-624 aa) (Homo sapiens (Human), UniProt Q14145)", "sequence (Q14145 321-624)": "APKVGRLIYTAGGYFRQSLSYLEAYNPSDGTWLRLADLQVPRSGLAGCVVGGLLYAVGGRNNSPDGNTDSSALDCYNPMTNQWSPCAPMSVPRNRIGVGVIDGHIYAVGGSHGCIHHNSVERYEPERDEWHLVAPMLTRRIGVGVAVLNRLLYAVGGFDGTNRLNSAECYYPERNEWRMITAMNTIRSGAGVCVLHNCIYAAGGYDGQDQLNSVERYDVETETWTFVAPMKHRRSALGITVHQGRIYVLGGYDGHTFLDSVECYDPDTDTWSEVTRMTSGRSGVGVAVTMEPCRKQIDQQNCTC", "experiment": "KEAP1 KELCH ThermoFluor binding assay", "conditions": "KEAP Kelch 1.1 μM, pH 7.0, average of results obtained, read-out: Tf Kd", "units": {"Kd": "nM"}, "from_the_text": "The shift in the melting point described as a ΔTm is proportional to the concentration and affinity of the ligand. The compound potency may be compared as a rank order of either ΔTm values at a single compound concentration or in terms of KD values, estimated from concentration response curves.\nThe protein was expressed in E. coli with 6His tag that was cleaved prior to receipt for use.\nProtein (KEAP Kelch) and compound solutions were dispensed into black 384-well polypropylene PCR microplates (Abgene) and overlayed with silicone oil (1 μL, Fluka, type DC 200) to prevent evaporation.", "values": [
      {"compound": "CCn1nnc2c(C)c(C(CC(=O)O)c3ccc(C)c(CN4CC5(COC5)Oc5ccccc5S4(=O)=O)n3)ccc21", "note": "(racemic) [Example 237, (R/S)-3-(6-((1,1-Dioxidospiro[benzo[b][1,4,5]oxathiazepine-4,3′-oxetan]-2(3H)-yl)methyl)-5-methylpyridin-2-yl)-3-(1-ethyl-4-methyl-1H-benzo[d][1,2,3]triazol-5-yl)propanoic acid]", "Kd": 1.5},
      {"compound": "Cc1ccc(C(c2ccn3c(C(F)(F)F)nnc3c2C)C(C)C(=O)O)cc1CN1C[C@@H]2CCCCN2c2ncccc2S1(=O)=O", "note": "(stereo in doubt) [Example 129, 3-(3-(((*S)-5,5-Dioxido-7,7a,8,9,10,11-hexahydro-6H-dipyrido[2,1-d:2′,3′-f][1,2,5]thiadiazepin-6-yl)methyl)-4-methylphenyl)-2-methyl-3-(8-methyl-3-(trifluoromethyl)-[1,2,4]triazolo[4,3-a]pyridine-7-yl)propanoic acid]", "Kd": "< 1"}
    ]}
  ]
}
